Test results as given in patent US4476122A, “Alkyloximes of 7-amino-thiazolyl-acetamido-cephalosporanic acids” (Roussel Uclaf, priority 1976, dated 1984).
Converted amounts (≈) assume the structure as drawn. Like-named read-outs stand apart in the source and are kept apart here.

Columns and labels:
[1] = test system: Klebsiella pneumonia 52,145; experiment: Experimental infection with Klebsiella pneumonia in mice (D); type: in vivo
Method: The activity of the products of Examples 19 and 21 was studied on an experimental infection of Klebsiella pneumonia in mice. Groups of 10 male mice weighing 21.5 g received intraperitoneally 0.5 ml of a 24 hour culture in nutritive media of Klebsiella pneumonia 52,145 diluted by 1/1000 with distilled water. The products were administered subcutaneously 1,5 and 24 hours after the injection and the number of dead mice were determined using 10th days.

Escherichia Coli 68 956 = experiment: MIC, liquid medium dilution; type: cell-based
Method: (§1) The method used was a dilution of a liquid medium where a series of tubes received the same quantity of a sterile nutritive media and increasing doses of the test compounds were placed therein. Then each tube was seeded with a bacterial strain and was incubated for 24 or 48 hours at 37° C. in an oven. The increasing inhibition was determined by transillumination to determine the minimum inhibiting concentration (MIC in μg/ml) and the results are reported in the following Tables.

[2] = test system: White Staphylococcus 21 976; experiment: MIC, liquid medium dilution; type: cell-based
Method: as §1

Escherichia Coli 73 316 = experiment: MIC, liquid medium dilution; type: cell-based
Method: as §1

[3] = test system: Golden Staphylococcus 68 666; experiment: MIC, liquid medium dilution; type: cell-based
Method: as §1

[4] = test system: Pathogenic white Staphylococcus 69 396; experiment: MIC, liquid medium dilution; type: cell-based
Method: as §1

Escherichia Coli 69 886 = experiment: MIC, liquid medium dilution; type: cell-based
Method: as §1

Escherichia Coli 72 806 = experiment: MIC, liquid medium dilution; type: cell-based
Method: as §1

Escherichia Coli 19 976 = experiment: MIC, liquid medium dilution; type: cell-based
Method: as §1

Escherichia Coli 69 916 = experiment: MIC, liquid medium dilution; type: cell-based
Method: as §1

Escherichia Coli 21 976 = experiment: MIC, liquid medium dilution; type: cell-based
Method: as §1

Escherichia Coli 68 696 = experiment: MIC, liquid medium dilution; type: cell-based
Method: as §1

[5] = test system: Klebsiella pneumonia 52,145; experiment: Experimental infection with Klebsiella pneumonia in mice (C); type: in vivo; settings: subcutaneous
Method: The activity of the products of Examples 4 and 6 was studied on an experimental infection of Klebsiella pneumonia in mice. Groups of 10 male mice weighing 21 g were infected by an intraperitoneal injection of 0.5 ml of a culture in nutrive media of Klebsiella pneumonia 52,145 diluted by 1/1000 with distilled water. The products were administered subcutaneously 30 minutes, 4, 8, 24 and 32 hours after the injection and the number of dead mice was determined during 10th days.

[6] = test system: Streptococcus faecalis 5 432; experiment: MIC, liquid medium dilution; type: cell-based
Method: as §1

[7] = test system: Escherichia Coli Resistant Tetracycline ATCC 11 303; experiment: MIC, liquid medium dilution; type: cell-based; settings: read-out: MIC
Method: as §1

[8] = test system: Klebsiella pneumoniae Exp. 52 145; experiment: MIC, liquid medium dilution; type: cell-based; settings: read-out: MIC
Method: as §1

[9] = test system: Proteus vulgaris (indol+) A 232; experiment: MIC, liquid medium dilution; type: cell-based
Method: as §1

[10] = test system: Streptococcus faecalis 99 F 74; experiment: MIC, liquid medium dilution; type: cell-based; settings: Enterococcus faecalis
Method: as §1

[11] = test system: Serratia Resistant Gentamicine 2 532; experiment: MIC, liquid medium dilution; type: cell-based; settings: read-out: MIC
Method: as §1

[12] = test system: Escherichia Coli Resistant Gentamicine, Tobramycine R 55 123 D; experiment: MIC, liquid medium dilution; type: cell-based
Method: as §1

Providencia Du 48 = experiment: MIC, liquid medium dilution; type: cell-based
Method: as §1

[13] = test system: Staphylococcus aureus UC 1 128 Pen-Resistant; experiment: MIC, liquid medium dilution; type: cell-based
Method: as §1

[14] = test system: Klebsiella pneumoniae 2 536 Resistant Gentamicine; experiment: MIC, liquid medium dilution; type: cell-based
Method: as §1

[15] = test system: Pseudomonas 3 935 Exp. SG; experiment: MIC, liquid medium dilution; type: cell-based; settings: 3935EXP.SG
Method: as §1

[16] = test system: Staphylococcus aureus ATCC 6 538 Pen-Sensitive; experiment: MIC, liquid medium dilution; type: cell-based; settings: read-out: MIC
Method: as §1

Enterobacter cloacae 681 = experiment: MIC, liquid medium dilution; type: cell-based
Method: as §1

[17] = test system: Escherichia Coli Sensitive Tetracycline ATCC 9 637; experiment: MIC, liquid medium dilution; type: cell-based
Method: as §1

[18] = test system: Staphylococcus aureus exp. n° 54 146; experiment: MIC, liquid medium dilution; type: cell-based
Method: as §1

[19] = test system: Salmonella typhimurium 420; experiment: MIC, liquid medium dilution; type: cell-based; settings: Salmonella enterica
Method: as §1

[20] = test system: Bacillus subtilis ATCC 6 633; experiment: MIC, liquid medium dilution; type: cell-based
Method: as §1

[21] = test system: Escherichia Coli Exp. TO26 B6; experiment: MIC, liquid medium dilution; type: cell-based
Method: as §1

[22] = test system: Streptococcus pyogenes A 561; experiment: MIC, liquid medium dilution; type: cell-based; settings: read-out: MIC
Method: as §1

[23] = test system: Proteus mirabilis (indol-) A 235; experiment: MIC, liquid medium dilution; type: cell-based; settings: read-out: MIC
Method: as §1

[24] = Hygroscopicity of the crystalline salt; type: physicochemical; settings: microcrystalline sodium salt

SMILES: CO/N=C(\C(=O)NC1C(=O)N2C(C(=O)O)=C(CSC(C)=O)CSC12)c1csc(N)n1 (stereo not shown) [Example 21, sodium 3-acetylthiomethyl-7-[{2-(2-amino-4-thiazolyl)-2-methoxyiminoacetyl}amino]-ceph-3-eme-4-carboxylate]
- Mice alive on the 10th day ([1]; subcutaneous, 0,1 mg): 9/10
- Mortality after 4eJ (number of dead of 10) ([1]; subcutaneous, 0,1 mg): 1
- Mice alive on the 10th day ([1]; subcutaneous, 0,05 mg): 9/10
- Mortality after 73H 15 (number of dead of 10) ([1]; subcutaneous, 0,05 mg): 1
- Mice alive on the 10th day ([1]; subcutaneous, 0,5 mg): 10/10
- Mice alive on the 10th day ([1]; subcutaneous, 0,25 mg): 10/10
- Mice alive on the 10th day ([1]; subcutaneous, 1 mg): 10/10
- MIC (Escherichia Coli 68 956; COLI68956, 24 h): 0.4 µg/mL
- MIC (Escherichia Coli 68 956; COLI68956, 48 h): 0.4 µg/mL
- MIC ([2]; 24 h): 3 µg/mL
- MIC ([2]; 48 h): 5 µg/mL
- MIC (Escherichia Coli 73 316; COLI73316, 24 h): 0.2 µg/mL
- MIC (Escherichia Coli 73 316; COLI73316, 48 h): 0.2 µg/mL
- MIC ([3]; 24 h): 3 µg/mL
- MIC ([3]; 48 h): 5 µg/mL
- MIC ([4]; 24 h): 2 µg/mL
- MIC ([4]; 48 h): 2 µg/mL
- MIC (Escherichia Coli 69 886; COLI69886, 24 h, read-out: MIC): 0.6 µg/mL
- MIC (Escherichia Coli 69 886; COLI69886, 48 h): 1 µg/mL
- MIC (Escherichia Coli 72 806; COLI72806, 24 h): 1 µg/mL
- MIC (Escherichia Coli 72 806; COLI72806, 48 h): 1 µg/mL
- MIC (Escherichia Coli 19 976; COLI19976, 24 h, read-out: MIC): 0.6 µg/mL
- MIC (Escherichia Coli 19 976; COLI19976, 48 h): 0.6 µg/mL
- MIC (Escherichia Coli 69 916; COLI69916, 24 h): 0.4 µg/mL
- MIC (Escherichia Coli 69 916; COLI69916, 48 h): 0.4 µg/mL
- MIC (Escherichia Coli 21 976; COLI21976, 24 h, read-out: MIC): 0.6 µg/mL
- MIC (Escherichia Coli 21 976; COLI21976, 48 h): 0.6 µg/mL
- MIC (Escherichia Coli 68 696; COLI68696, 24 h): 0.4 µg/mL
- MIC (Escherichia Coli 68 696; COLI68696, 48 h): 0.4 µg/mL

SMILES: CO/N=C(\C(=O)NC1C(=O)N2C(C(=O)O)=C(CSc3nnnn3C)CS[C@H]12)c1csc(N)n1 (stereo partly shown) [Example 4, 7-[{2-(2-amino-4-thiazolyl)-2-methoxyiminoacetyl}amino]-3-[(1-methyl-tetrazol-5-yl)-thiomethyl]-ceph-3-eme-4-carboxylic acid]
- Mice alive on the 10th day ([5]; 5 × 0,1 mg): 9/10
- Mortality after 5 J (number of dead of 10) ([5]; 5 × 0,1 mg): 1
- Mice alive on the 10th day ([5]; 5 × 0,25 mg): 10/10
- MIC ([6]; Enterococcus faecalis, 5432, 24 h): 2 µg/mL (≈ 3.91 µM)
- MIC ([6]; Enterococcus faecalis, 5432, 48 h): 2 µg/mL (≈ 3.91 µM)
- MIC ([7]; ATCC11, 24 h): 0.05 µg/mL (≈ 0.0977 µM)
- MIC ([7]; ATCC11, 48 h): 0.05 µg/mL (≈ 0.0977 µM)
- MIC ([8]; EXP.52145, 24 h): 0.02 µg/mL (≈ 0.0391 µM)
- MIC ([8]; EXP.52145, 48 h): 0.02 µg/mL (≈ 0.0391 µM)
- MIC ([9]; 24 h, read-out: MIC): 3 µg/mL (≈ 5.86 µM)
- MIC ([9]; 48 h): 20 µg/mL (≈ 39.1 µM)
- MIC ([10]; 99F74, 24 h): 2 µg/mL (≈ 3.91 µM)
- MIC ([10]; 99F74, 48 h, read-out: MIC): 10 µg/mL (≈ 19.5 µM)
- MIC ([11]; 24 h): 1 µg/mL (≈ 1.95 µM)
- MIC ([11]; 48 h): 1 µg/mL (≈ 1.95 µM)
- MIC ([12]; 24 h): 0.2 µg/mL (≈ 0.391 µM)
- MIC ([12]; 48 h): 0.2 µg/mL (≈ 0.391 µM)
- MIC (Providencia Du 48; DU48, 24 h): 2 µg/mL (≈ 3.91 µM)
- MIC (Providencia Du 48; DU48, 48 h): 2 µg/mL (≈ 3.91 µM)
- MIC ([13]; UC1, 24 h): 2 µg/mL (≈ 3.91 µM)
- MIC ([13]; UC1, 48 h): 2 µg/mL (≈ 3.91 µM)
- MIC ([14]; 24 h): 0.4 µg/mL (≈ 0.782 µM)
- MIC ([14]; 48 h, read-out: MIC): 0.6 µg/mL (≈ 1.17 µM)
- MIC ([15]; 24 h): 20 µg/mL (≈ 39.1 µM)
- MIC ([15]; 48 h, read-out: MIC): 40 µg/mL (≈ 78.2 µM)
- MIC ([16]; ATCC6, 24 h): 1 µg/mL (≈ 1.95 µM)
- MIC ([16]; ATCC6, 48 h): 1 µg/mL (≈ 1.95 µM)
- MIC (Enterobacter cloacae 681; Enterobacter cloacae, 681, 24 h): 20 µg/mL (≈ 39.1 µM)
- MIC (Enterobacter cloacae 681; Enterobacter cloacae, 681, 48 h): 20 µg/mL (≈ 39.1 µM)
- MIC ([17]; ATCC9, 24 h): 0.4 µg/mL (≈ 0.782 µM)
- MIC ([17]; ATCC9, 48 h): 0.4 µg/mL (≈ 0.782 µM)
- MIC ([18]; 24 h): 2 µg/mL (≈ 3.91 µM)
- MIC ([18]; 48 h): 2 µg/mL (≈ 3.91 µM)
- MIC ([19]; 24 h): 0.2 µg/mL (≈ 0.391 µM)
- MIC ([19]; 48 h): 0.2 µg/mL (≈ 0.391 µM)
- MIC ([20]; ATCC6, 24 h): 2 µg/mL (≈ 3.91 µM)
- MIC ([20]; ATCC6, 48 h, read-out: MIC): 5 µg/mL (≈ 9.77 µM)
- MIC ([21]; 24 h): 0.2 µg/mL (≈ 0.391 µM)
- MIC ([21]; 48 h): 0.2 µg/mL (≈ 0.391 µM)
- MIC ([22]; A561, 24 h): ≤ 0.02 µg/mL
- MIC ([22]; A561, 48 h): ≤ 0.02 µg/mL
- MIC ([23]; 24 h): 0.05 µg/mL (≈ 0.0977 µM)
- MIC ([23]; 48 h): 0.05 µg/mL (≈ 0.0977 µM)

SMILES: CO/N=C(\C(=O)NC1C(=O)N2C(C(=O)O)=C(CSC(C)=O)CSC12)c1csc(N)n1 (stereo not shown) [Example 22, sodium 3-acetylthiomethyl-7-[{2-(2-amino-4-thiazolyl)-2-methoxyiminoacetyl}amino]-ceph-3-eme-4-carboxylate]
- hygroscopicity [24]: non-hydroscopic
